According to PMC10539439 (Pharmacological Reports, 2023):

Experiment: Blood pressure, 24-h telemetric method, normotensive rats
Type: in vivo, rat
Conditions: 5 mg/kg
Method: The blood pressure of rats treated with the tested compound was measured for a 24 h period after ip treatment (5 mg/kg b.w.) with a special telemetric system Stellar (TSE-Systems, Germany).
Surgery: The operation was carried out over 30 min under sterile conditions. Rats were anaesthetized with ketamine and xylasine (intramuscular injection: 100 mg/kg and 10 mg/kg). Before surgery and for 7 days after, the animals were also treated with cefuroxime (20 mg/kg/day) via intramuscular injection and ketoprofen (5 mg/kg/day) via ip injection. […] The transmitter was sutured to the peritoneal cavity.
The rats were individually caged for 2 weeks to heal after surgical cut. The animals were then placed in pairs in cages to reduce their isolation stress. Blood pressure was measured: before ip administration of the compounds – time 0 min and 24 h thereafter.

[1] = telemetry, after first administration, time 0, n 6
[2] = telemetry, after first administration, time 0.25, n 6
[3] = telemetry, after first administration, time 0.5, n 6
[4] = telemetry, after first administration, time 0.75, n 6
[5] = telemetry, after first administration, time 1, n 6
[6] = telemetry, after first administration, time 1.25, n 6
[7] = telemetry, after first administration, time 1.5, n 6
[8] = telemetry, after first administration, time 1.75, n 6
[9] = telemetry, after first administration, time 2, n 6
[10] = telemetry, after first administration, time 3, n 6
[11] = telemetry, after first administration, time 4, n 6
[12] = telemetry, after first administration, time 5, n 6
[13] = telemetry, after first administration, time 6, n 6
[14] = telemetry, after first administration, time 7, n 6
[15] = telemetry, after first administration, time 8, n 6
[16] = telemetry, after first administration, time 9, n 6
[17] = telemetry, after first administration, time 10, n 6
[18] = telemetry, after first administration, time 11, n 6
[19] = telemetry, after first administration, time 12, n 6
[20] = telemetry, after first administration, time 13, n 6
[21] = telemetry, after first administration, time 14, n 6
[22] = telemetry, after first administration, time 15, n 6
[23] = telemetry, after first administration, time 16, n 6
[24] = telemetry, after first administration, time 17, n 6
[25] = telemetry, after first administration, time 18, n 6
[26] = telemetry, after first administration, time 19, n 6
[27] = telemetry, after first administration, time 20, n 6
[28] = telemetry, after first administration, time 21, n 6
[29] = telemetry, after first administration, time 22, n 6
[30] = telemetry, after first administration, time 23, n 6
[31] = telemetry, after first administration, time 24, n 6

## N=C(N)N/N=C/c1c(Cl)cc(O)cc1Cl [4HOGuanabenz]
rat, time 0.5
  diastolic pressure, mean: 94.25 mmHg
  systolic pressure, mean: 131.8 mmHg
rat, time 0.75
  diastolic pressure, mean: 87.25 mmHg
  systolic pressure, mean: 118.5 mmHg
rat, time 1
  diastolic pressure, mean: 82.5 mmHg
  systolic pressure, mean: 111.8 mmHg
rat, time 1.25
  diastolic pressure, mean: 78.5 mmHg
  systolic pressure, mean: 107.3 mmHg
rat, time 1.5
  diastolic pressure, mean: 79.75 mmHg
  systolic pressure, mean: 117.5 mmHg
rat, time 1.75
  diastolic pressure, mean: 80.5 mmHg
  systolic pressure, mean: 111.3 mmHg
rat, time 2
  diastolic pressure, mean: 78.75 mmHg
  systolic pressure, mean: 117.5 mmHg
rat, time 3
  diastolic pressure, mean: 77 mmHg
  systolic pressure, mean: 109.8 mmHg
rat, time 4
  diastolic pressure, mean: 80.5 mmHg
  systolic pressure, mean: 117 mmHg
rat, time 5
  diastolic pressure, mean: 81 mmHg
  systolic pressure, mean: 116.5 mmHg
rat, time 6
  diastolic pressure, mean: 77.5 mmHg
  systolic pressure, mean: 119.8 mmHg
rat, time 7
  diastolic pressure, mean: 76.25 mmHg
  systolic pressure, mean: 117.3 mmHg
rat, time 8
  diastolic pressure, mean: 66.75 mmHg
  systolic pressure, mean: 113.3 mmHg
rat, time 9
  diastolic pressure, mean: 83.5 mmHg
  systolic pressure, mean: 131.8 mmHg
rat, time 10
  diastolic pressure, mean: 70.75 mmHg
  systolic pressure, mean: 120.8 mmHg
rat, time 11
  diastolic pressure, mean: 81.5 mmHg
  systolic pressure, mean: 125.3 mmHg
rat, time 12
  diastolic pressure, mean: 77.25 mmHg
  systolic pressure, mean: 123.8 mmHg
rat, time 13
  diastolic pressure, mean: 75.75 mmHg
  systolic pressure, mean: 113 mmHg
rat, time 14
  diastolic pressure, mean: 73.25 mmHg
  systolic pressure, mean: 113.5 mmHg
rat, time 15
  diastolic pressure, mean: 77.5 mmHg
  systolic pressure, mean: 113.3 mmHg
rat, time 16
  diastolic pressure, mean: 79.5 mmHg
  systolic pressure, mean: 121.8 mmHg
rat, time 17
  diastolic pressure, mean: 88.25 mmHg
  systolic pressure, mean: 124.5 mmHg
rat, time 18
  diastolic pressure, mean: 76 mmHg
  systolic pressure, mean: 118.5 mmHg
rat, time 19
  diastolic pressure, mean: 76 mmHg
  systolic pressure, mean: 117.5 mmHg
rat, time 20
  diastolic pressure, mean: 66 mmHg
  systolic pressure, mean: 108.8 mmHg
rat, time 21
  diastolic pressure, mean: 70.5 mmHg
  systolic pressure, mean: 103.3 mmHg
rat, time 22
  diastolic pressure, mean: 74.5 mmHg
  systolic pressure, mean: 110.3 mmHg
rat, time 23
  diastolic pressure, mean: 75.25 mmHg
  systolic pressure, mean: 116.3 mmHg
rat, time 24
  diastolic pressure, mean: 72.75 mmHg
  systolic pressure, mean: 109.5 mmHg
[1]
  diastolic pressure, mean: 80.5 mmHg
  systolic pressure, mean: 126.2 mmHg
[2]
  diastolic pressure, mean: 92.75 mmHg
  systolic pressure, mean: 141 mmHg
[3]
  diastolic pressure, mean: 87.5 mmHg
  systolic pressure, mean: 127.3 mmHg
[4]
  diastolic pressure, mean: 78 mmHg
  systolic pressure, mean: 115.6 mmHg
[5]
  diastolic pressure, mean: 81.38 mmHg
  systolic pressure, mean: 117.3 mmHg
[6]
  diastolic pressure, mean: 76.88 mmHg
  systolic pressure, mean: 111 mmHg
[7]
  diastolic pressure, mean: 75.13 mmHg
  systolic pressure, mean: 106 mmHg
[8]
  diastolic pressure, mean: 80.13 mmHg
  systolic pressure, mean: 112.4 mmHg
[9]
  diastolic pressure, mean: 74.63 mmHg
  systolic pressure, mean: 107 mmHg
[10]
  diastolic pressure, mean: 78.75 mmHg
  systolic pressure, mean: 110.8 mmHg
[11]
  diastolic pressure, mean: 68.75 mmHg
  systolic pressure, mean: 107.9 mmHg
[12]
  diastolic pressure, mean: 80.88 mmHg
  systolic pressure, mean: 114.1 mmHg
[13]
  diastolic pressure, mean: 78 mmHg
  systolic pressure, mean: 111.6 mmHg
[14]
  diastolic pressure, mean: 71 mmHg
  systolic pressure, mean: 111.1 mmHg
[15]
  diastolic pressure, mean: 72.75 mmHg
  systolic pressure, mean: 110.8 mmHg
[16]
  diastolic pressure, mean: 77.88 mmHg
  systolic pressure, mean: 114.6 mmHg
[17]
  diastolic pressure, mean: 77.63 mmHg
  systolic pressure, mean: 114.9 mmHg
[18]
  diastolic pressure, mean: 70.75 mmHg
  systolic pressure, mean: 107.6 mmHg
[19]
  diastolic pressure, mean: 80.25 mmHg
  systolic pressure, mean: 121.9 mmHg
[20]
  diastolic pressure, mean: 74.5 mmHg
  systolic pressure, mean: 114.9 mmHg
[21]
  diastolic pressure, mean: 81.88 mmHg
  systolic pressure, mean: 122.6 mmHg
[22]
  diastolic pressure, mean: 71.63 mmHg
  systolic pressure, mean: 109.4 mmHg
[23]
  diastolic pressure, mean: 72.75 mmHg
  systolic pressure, mean: 108.4 mmHg
[24]
  diastolic pressure, mean: 76.75 mmHg
  systolic pressure, mean: 112.6 mmHg
[25]
  diastolic pressure, mean: 78.75 mmHg
  systolic pressure, mean: 115.3 mmHg
[26]
  diastolic pressure, mean: 79.5 mmHg
  systolic pressure, mean: 117.3 mmHg
[27]
  diastolic pressure, mean: 77 mmHg
  systolic pressure, mean: 117.8 mmHg
[28]
  diastolic pressure, mean: 76.63 mmHg
  systolic pressure, mean: 117.8 mmHg
[29]
  diastolic pressure, mean: 71.5 mmHg
  systolic pressure, mean: 109.5 mmHg
[30]
  diastolic pressure, mean: 73.38 mmHg
  systolic pressure, mean: 109.5 mmHg
[31]
  diastolic pressure, mean: 77.63 mmHg
  systolic pressure, mean: 114.3 mmHg
